Test results: US8399676B2, “Piperidine derivatives” (Hoffman-La Roche Inc., priority 2009, dated 2013)
Counter-ions that a name gives are not always drawn.

target: T1, human HSL (Homo sapiens, UniProt Q05469); assay: Human Hormone-Sensitive Lipase (HSL) enzyme inhibition assay (colorimetric, DMPT substrate); type: biochemical; details: read-out: HSL hum IC50
T1 construct: generate a full length human HSL ORF with a 3′-His6 tag; His6 (C); made in house; host or cells: High 5 insect cells (baculovirus, pFast-BAC)
T1 sequence (Q05469 1-1076): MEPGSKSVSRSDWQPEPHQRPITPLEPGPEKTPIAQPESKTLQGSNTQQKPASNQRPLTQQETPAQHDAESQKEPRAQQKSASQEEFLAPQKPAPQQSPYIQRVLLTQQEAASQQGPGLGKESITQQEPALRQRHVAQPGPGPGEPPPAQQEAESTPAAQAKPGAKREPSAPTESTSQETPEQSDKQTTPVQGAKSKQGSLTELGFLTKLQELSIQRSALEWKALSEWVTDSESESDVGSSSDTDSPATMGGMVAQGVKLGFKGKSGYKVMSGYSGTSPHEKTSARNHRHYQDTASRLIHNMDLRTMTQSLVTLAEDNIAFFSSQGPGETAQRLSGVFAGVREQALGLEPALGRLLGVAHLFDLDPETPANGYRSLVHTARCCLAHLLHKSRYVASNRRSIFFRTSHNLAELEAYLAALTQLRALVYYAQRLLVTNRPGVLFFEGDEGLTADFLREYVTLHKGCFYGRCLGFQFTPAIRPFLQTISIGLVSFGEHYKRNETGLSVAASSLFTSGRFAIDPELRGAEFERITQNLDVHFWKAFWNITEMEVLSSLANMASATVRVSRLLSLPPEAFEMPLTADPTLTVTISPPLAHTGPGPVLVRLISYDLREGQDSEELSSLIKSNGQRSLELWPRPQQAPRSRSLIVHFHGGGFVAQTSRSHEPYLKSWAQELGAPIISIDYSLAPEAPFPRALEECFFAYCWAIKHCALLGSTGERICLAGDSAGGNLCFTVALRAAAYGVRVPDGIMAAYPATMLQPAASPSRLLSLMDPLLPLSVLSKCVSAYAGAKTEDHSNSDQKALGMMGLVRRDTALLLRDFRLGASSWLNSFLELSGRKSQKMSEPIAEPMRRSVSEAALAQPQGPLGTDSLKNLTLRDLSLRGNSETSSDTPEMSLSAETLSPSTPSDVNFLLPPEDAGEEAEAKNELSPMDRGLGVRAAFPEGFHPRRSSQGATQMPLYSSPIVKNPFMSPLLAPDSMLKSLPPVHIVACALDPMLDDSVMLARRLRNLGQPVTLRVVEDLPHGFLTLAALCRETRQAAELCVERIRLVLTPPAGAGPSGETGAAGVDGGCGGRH
Protocol: Production of Human Full Length Hormone Sensitive Lipase-His^6
1) Cloning: cDNA was prepared from commercial human brain polyA+ RNA and used as a template in overlapping PCR to generate a full length human HSL ORF with a 3′-His6 tag. This full length insert was cloned into the pFast-BAC vector and the DNA-sequence of several single clones was verified. DNA from a correct full length clone with the 3′His6 tag was used to transform the E. coli strain DH10BAC. Resulting bacmid DNA was used to generate a titered baculovirus stock for protein generation. The sequence of the encoded HSL conforms to Swissprot entry Q05469, with the additional C-terminal His6-tag.
2) Protein purification: Culture: 5.5 L, High 5 cells expressing human full length HSL-His^6, 48 hr., containing 25 μM E-64. Cell count: […], 90% viable.
Cells were thawed. On ice, cells were suspended in Base Buffer containing 10% glycerol, 25 mM Tris-Cl, 300 mM NaCl, 10 mM imidazole, 10 mM 2-mercaptoethanol, 2 μg pepstatin/ml, 2 μg leupeptin/ml, 2 μg antipain/ml, pH 8.0 at 4° C. in a final volume of 475 ml with 3.75×10^7 cells/ml. […] was done at 3×30 sec., Lubrol PX was added to 0.2% final concentration followed by stirring for 15 min. at 4° C. and centrifugation at 25 k×g, 60 min., 4° C. Soluble proteins were mixed with 60 ml of pre-washed and equilibrated Ni-NTA Agarose (Qiagen 30210) followed by tumbling end-over-end, 45 min., 4° C., centrifugation 1000 rpm 5 min and letting resin settle 5 min. Supernatant was removed, the resin washed in the centrifuge vessel using 5 volumes of Base Buffer containing 0.2% Lubrol PX. Centrifugation was done again, then the supernatant discarded. The resin was poured onto a 0.8 μm membrane in a disposable filter unit (Nalge 450-0080), and washed with 5 volumes of Base Buffer containing 0.2% Lubrol PX. It was then washed with 30 volumes of Base Buffer containing 60 mM imidazole pH 7.5 at 4° C. The protein was eluted with 5 volumes of 25 mM Tris-Cl, 300 mM NaCl, 200 mM imidazole, 10 mM 2-mercaptoethanol, pH 7.5 at 4° C. by tumbling resin with buffer end-over-end, 30 min., 4° C. The resin was captured on a 0.2 μm membrane disposable filter unit (Millipore SCGP U02 RE) and the elute collected in the reservoir. The elute was concentrated using a 30 k MWCO centrifugal filter device (Sartorius Vivascience Vivacell 100, VC1022), to 20 ml. It was then dialyzed overnight at 4° C., two times against 2 L of 10% glycerol, 25 mM Tris-Cl, 300 mM NaCl, 0.2 mM EDTA, 0.2 mM DTT, pH 7.5 at 4° C. The protein was filtered using a 0.22 μm disposable filter unit (Millipore SCGP00525). The protein concentration was calculated from absorbance at 280 nm, using 280=0.67 cm-1 mg-1. Yield was 235 mg, total. The protein was stored at −80° C. Human Hormone-Sensitive Lipase (HSL) enzyme inhibition assay:
HSL enzyme activity was measured by a colorimetric assay using 2,3-dimercapto-1-propanol tributyrate (Aldrich, St. Louis, Mo.) as a substrate. Typically, 1.5 mM 2,3-dimercapto-1-propanol tributyrate (DMPT) in 100 mM MOPS, pH 7.2, 0.2 mg/ml fatty acid-free BSA was prepared by sonication at 4° C. to homogenous suspension. Test compounds (2 mM stock in DMSO) were diluted 3 fold in series in DMSO. Compound solutions were diluted 24 fold in 1.5 mM DMPT containing solution and 18 ul per well was added to 384-well microplates (Corning Costar). Twelve microliters per well of human HSL (15 ug/ml) was added and the reaction mixture was incubated at 37° C. for 20 minutes. Six microliters of 12 mM dithio-bis-(2-nitrobenzoic acid) (DTNB) in DMSO plus 1.2% SDS and 0.6% Triton X-100 were added and the mixture was incubated at room temperature for 15 minutes. Product production was monitored by reading absorbance at 405 nm on an Envision Reader (PerkinElmer Life and Analytical Sciences, Shelton, Conn.).

Row | IC50 [nM] | SMILES
1 | 840 | COc1ccc(Cl)cc1NC(=O)N1CCC(O)(C(=O)Nc2ccc(C(C)(C)C)cc2)CC1 [Example 50, 4-Hydroxy-piperidine-1,4-dicarboxylic acid 4-[(4-tert-butyl-phenyl)-amide] 1-[(5-chloro-2-methoxy-phenyl)-amide]]
2 | 140 | CCc1ccc(NC(=O)C2(N)CCN(S(=O)(=O)c3ccccc3OC)CC2)cc1 [Example 137, 4-Amino-1-(2-methoxy-benzenesulfonyl)-piperidine-4-carboxylic acid (4-ethyl-phenyl)-amide]
3 | 460 | CCc1ccc(NC(=O)C2(N)CCN(C(=O)OCc3ccccc3)CC2)cc1 [Example 132, 4-Amino-4-(4-ethyl-phenylcarbamoyl)-piperidine-1-carboxylic acid benzyl ester]
4 | 80 | CC(C)(C)c1ccc(NC(=O)C2(O)CCN(Cc3ccccc3Cl)CC2)cc1 [Example 44]
5 | 210 | Cc1ccc(S(=O)(=O)N2CCC(O)(C(=O)Nc3ccc(C(C)C)cc3)CC2)cc1 [Example 5, 4-Hydroxy-1-(toluene-4-sulfonyl)-piperidine-4-carboxylic acid (4-isopropyl-phenyl)-amide]
6 | 550 | O=C(c1ccc(F)cc1)N1CCC(O)(C(=O)Nc2ccc(OC(F)(F)F)cc2)CC1 [Example 11, 1-(4-Fluoro-benzoyl)-4-hydroxy-piperidine-4-carboxylic acid (4-trifluoromethoxy-phenyl)-amide]
7 | 810 | CC(C)(C)CC(=O)N1CCC(O)(C(=O)Nc2ccc(OC(F)(F)F)cc2)CC1 [Example 51, 1-(3,3-Dimethyl-butyryl)-4-hydroxy-piperidine-4-carboxylic acid (4-trifluoromethoxy-phenyl)-amide]
8 | 600 | CC(C)(C)c1ccc(NC(=O)C2(O)CCN(C(=O)c3ccc(F)cc3C(F)(F)F)CC2)cc1 [Example 42, 1-(4-Fluoro-2-trifluoromethyl-benzoyl)-4-hydroxy-piperidine-4-carboxylic acid (4-tert-butyl-phenyl)-amide]
9 | 110 | CCc1ccc(NC(=O)C2(N)CCN(Cc3ccccc3Cl)CC2)cc1 [Example 154, 4-Amino-1-(2-chloro-benzyl)-piperidine-4-carboxylic acid (4-ethyl-phenyl)-amide]
10 | 80 | CC(C)c1ccc(NC(=O)N2CCC(N)(C(=O)Nc3ccc(C(C)C)cc3)CC2)cc1 [Example 107, 4-Amino-piperidine-1,4-dicarboxylic acid bis-[(4-isopropyl-phenyl)-amide]; hydrochloride]
11 | 310 | CCc1ccc(NC(=O)C2(N)CCN(S(=O)(=O)c3ccc(OC(F)(F)F)cc3)CC2)cc1 [Example 138, 4-Amino-1-(4-trifluoromethoxy-benzenesulfonyl)-piperidine-4-carboxylic acid (4-ethyl-phenyl)-amide]
12 | 190 | O=C(Nc1ccc(OC(F)(F)F)cc1)C1(O)CCN(Cc2ccccc2F)CC1 [Example 58, 1-(2-Fluoro-benzyl)-4-hydroxy-piperidine-4-carboxylic acid (4-trifluoromethoxy-phenyl)-amide]
13 | 70 | Cc1ccc(S(=O)(=O)N2CCC(N)(C(=O)Nc3ccc(C(C)C)cc3)CC2)cc1 [Example 78, 4-Amino-1-(toluene-4-sulfonyl)-piperidine-4-carboxylic acid (4-isopropyl-phenyl)-amide; hydrochloride]
14 | 390 | CC(C)(C)c1ccc(NC(=O)C2(O)CCN(Cc3ccccc3)CC2)cc1 [Example 3, 1-Benzyl-4-hydroxy-piperidine-4-carboxylic acid (4-tert-butyl-phenyl)-amide]
15 | 130 | CC(C)c1ccc(NC(=O)C2(N)CCN(Cc3ccccc3)CC2)cc1 [Example 122, 4-Amino-1-benzyl-piperidine-4-carboxylic acid (4-isopropyl-phenyl)-amide]
16 | 150 | CCc1ccc(NC(=O)C2(N)CCN(C(c3ccccc3)c3ccccc3)CC2)cc1 [Example 159, 4-Amino-1-benzhydryl-piperidine-4-carboxylic acid (4-ethyl-phenyl)-amide]
17 | 610 | CCc1ccc(NC(=O)C2(N)CCN(S(=O)(=O)c3ccccc3S(C)(=O)=O)CC2)cc1 [Example 136, 4-Amino-1-(2-methanesulfonyl-benzenesulfonyl)-piperidine-4-carboxylic acid (4-ethyl-phenyl)-amide]
18 | 330 | CC(C)(C)CS(=O)(=O)N1CCC(O)(C(=O)Nc2ccc(OC(F)(F)F)cc2)CC1 [Example 55, 1-(2,2-Dimethyl-propane-1-sulfonyl)-4-hydroxy-piperidine-4-carboxylic acid (4-trifluoromethoxy-phenyl)-amide]
19 | 220 | Cc1ccc(S(=O)(=O)N2CCC(O)(C(=O)Nc3ccc(OC(F)(F)F)cc3)CC2)cc1 [Example 60, 4-Hydroxy-1-(toluene-4-sulfonyl)-piperidine-4-carboxylic acid (4-trifluoromethoxy-phenyl)-amide]
20 | 50 | Cc1ccc(S(=O)(=O)N2CCC(N)(C(=O)Nc3ccc(OC(F)(F)F)cc3)CC2)cc1 [Example 80, 4-Amino-1-(toluene-4-sulfonyl)-piperidine-4-carboxylic acid (4-trifluoromethoxy-phenyl)-amide; hydrochloride]
21 | 60 | NC1(C(=O)Nc2ccc3c(c2)CCC3)CCN(S(=O)(=O)c2ccccc2Cl)CC1 [Example 99, 4-Amino-1-(2-chloro-benzenesulfonyl)-piperidine-4-carboxylic acid indan-5-ylamide]
22 | 90 | CCc1ccc(NC(=O)C2(N)CCN(S(=O)(=O)c3ccccc3)CC2)cc1 [Example 133, 4-Amino-1-benzenesulfonyl-piperidine-4-carboxylic acid (4-ethyl-phenyl)-amide]
